Our source for the IC50 and KF values is ChEMBL document CHEMBL1151021, “Synthesis of potent 6-oxo and 9-fluoro-PGE1-derivatives and their biological properties” (Bioorg Med Chem Lett, 1992).

Activity calls are given as the source filed them. No cut-off for these calls is given here.

Experiment [1] is described as follows: Concentration required for the inhibition of blood platelet aggregation induced by ADP. Format: functional.
The target of experiment [2] is Prostacyclin receptor (Homo sapiens) (UniProt P43119). The experiment is described as follows: The compound was evaluated for the affinity towards Prostaglandin I2 receptor; not parallel.
The nature of experiment [3]: The compound was evaluated for the affinity towards PGE-2 receptor.
Experiment [4] concerns the target Prostacyclin receptor (Homo sapiens) (UniProt P43119). Briefly: The compound was evaluated for the affinity towards Prostaglandin I2 receptor.
Experiment [5] deals with T1, Prostaglandin D2 receptor (Homo sapiens) (UniProt Q13258).
T1 sequence (whole entry): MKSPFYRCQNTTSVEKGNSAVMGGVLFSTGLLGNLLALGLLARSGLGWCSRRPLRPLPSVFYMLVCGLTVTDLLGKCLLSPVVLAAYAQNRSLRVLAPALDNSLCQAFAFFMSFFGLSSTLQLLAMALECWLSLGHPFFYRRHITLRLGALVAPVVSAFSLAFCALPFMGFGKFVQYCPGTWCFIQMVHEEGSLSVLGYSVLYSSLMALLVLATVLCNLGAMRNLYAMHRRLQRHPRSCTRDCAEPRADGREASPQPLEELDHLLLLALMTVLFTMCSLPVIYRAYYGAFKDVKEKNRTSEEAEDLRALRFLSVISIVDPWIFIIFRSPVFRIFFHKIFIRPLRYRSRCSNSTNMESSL
The experiment is described as follows: The compound was evaluated for the affinity towards PGD-2 receptor.

Experiment [6] in a line: The compound was evaluated for the affinity towards PGE-2 receptor; no competition.
Experiment [7] deals with Prostacyclin receptor (Homo sapiens) (UniProt P43119). The experiment is described as follows: The compound was evaluated for the affinity towards Prostaglandin I2 receptor; no competition.

Chain of Prostacyclin receptor (Homo sapiens) (P43119 whole entry): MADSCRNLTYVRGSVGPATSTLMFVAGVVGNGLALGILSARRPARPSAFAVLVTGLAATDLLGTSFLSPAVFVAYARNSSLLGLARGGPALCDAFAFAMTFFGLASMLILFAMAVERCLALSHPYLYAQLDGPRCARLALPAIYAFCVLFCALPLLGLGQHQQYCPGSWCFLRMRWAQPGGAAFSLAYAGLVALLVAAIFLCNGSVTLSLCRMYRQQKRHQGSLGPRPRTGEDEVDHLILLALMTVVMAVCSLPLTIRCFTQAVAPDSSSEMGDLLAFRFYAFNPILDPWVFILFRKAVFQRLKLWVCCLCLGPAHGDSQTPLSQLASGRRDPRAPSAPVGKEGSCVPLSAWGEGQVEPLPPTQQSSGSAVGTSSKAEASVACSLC

In experiment [1], `CC#CC[C@H](C)[C@H](O)/C=C/[C@H]1[C@H](O)CC(=O)[C@@H]1CC(=O)CCCCC(=O)O` registered an IC50 of 1 nM. For the same compound, the KF in experiment [2] and in experiment [3] was 40 in each case.

With `CCCCC[C@H](O)/C=C/[C@H]1[C@H](O)CC(=O)[C@@H]1CC(=O)CCCCC(=O)O`, in experiment [1], the IC50 came out at 7 nM. Moreover, the figures for the KF in experiment [4] and in experiment [3] were 129 and 7.1, respectively.

Turning to `CCC#CC[C@H](C)[C@H](O)C#C[C@H]1[C@H](O)CC(=O)[C@@H]1CC(=O)CCCCC(=O)O`, in experiment [1], inhibition was half-maximal at 0.09 nM (IC50). For the same compound, the figures for the KF in experiment [4] and in experiment [3] were 5 and 7.5, respectively.

As for `O=C(O)CCCCC(=O)C[C@H]1C(=O)C[C@@H](O)[C@@H]1/C=C/[C@@H](O)C1CCCCC1`, the KF in experiment [5] came to 70; in experiment [4], 58. The compound also gave an IC50 in experiment [1] of 3 nM. Further, the KF entry in experiment [6] was “inactive”.

With `CC#CC[C@H](C)[C@H](O)/C=C/[C@@H]1[C@@H](CC(=O)CCCCC(=O)O)[C@H](F)C[C@H]1O`, in experiment [1], half-maximal inhibition (IC50) required 100 nM. Moreover, in experiment [2], the KF came to 200.

Take `CC#CCC(C)[C@H](O)/C=C/[C@H]1[C@H](O)CC(=O)[C@@H]1CC(=O)CCCCC(=O)O` (some centres undefined): the values for the KF in experiment [5], in experiment [4] and in experiment [3] were 600, 60 and 140, respectively. In experiment [1], this compound displayed an IC50 of 1.6 nM.

Compound `CCC#CC[C@H](C)[C@H](O)C#C[C@@H]1[C@@H](CC(=O)CCCCC(=O)O)[C@H](F)C[C@H]1O` yielded an IC50 in experiment [1] of 20 nM. The KF in experiment [2] worked out at 32; in experiment [3], 700.

Consider `CC#CC[C@H](C)[C@H](O)/C=C/[C@@H]1[C@@H](CC(=O)CCCCC(=O)O)[C@@H](F)C[C@H]1O`, for which, in experiment [7], the KF entry is “inactive”. The compound also yielded an IC50 in experiment [1] of 1000 nM.

In general, IC50 refers to the concentration that inhibits the measured activity by half. A higher IC50 goes with weaker potency in that assay.
